Measured values published in PubChem BioAssay AID330 (DTP/NCI, 2004).
“And” between values parts separate entries of the source, which are not always exact repeats. Identical values can stand only once. Inconclusive results and toxic doses are left out. Rule for the calls: active = survival T/C of 150% or more; inactive = T/C below 125% in these data. Square brackets hold non-standard residues; d marks the D form. Peptide text beside a SMILES is read from it. * marks the point of attachment. ξ: configuration not given here. Ac5c = NC1(C(=O)O)CCCC1; Cbz = O=C(OCc1ccccc1)*; OBn = c1ccc(CO*)cc1; Bn = c1ccc(C*)cc1; ξC = NC(CS)C(=O)O; ξS = NC(CO)C(=O)O

Tested on: P388 leukemia ip, CD2F1 mice, survival T/C
Assay: NCI In Vivo Anticancer Drug Screen. Data for tumor model P388 Leukemia (intraperitoneal) in CD2F1 (CDF1) mice
Conditions: endpoint: median survival time, higher = longer survival
In short: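 Mice carrying the transplanted tumor received test compound or vehicle. Survival was recorded in each group, and the value is the treated-group measurement divided by that of the vehicle-treated control group.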

[1] = dose: 12.5 mg/kg/injection, schedule: Q01DX005 (ip), vehicle: Klucel (hydroxypropylcellulose) (HPC)
[2] = dose: 25.0 mg/kg/injection, schedule: Q01DX005 (ip), vehicle: Klucel (hydroxypropylcellulose) (HPC)
[3] = dose: 50.0 mg/kg/injection, schedule: Q01DX005 (ip), vehicle: Klucel (hydroxypropylcellulose) (HPC)
[4] = dose: 12.5 mg/kg/injection, schedule: Q01DX009 (ip), vehicle: saline with Tween-80
[5] = dose: 25.0 mg/kg/injection, schedule: Q01DX009 (ip), vehicle: saline with Tween-80
[6] = dose: 50.0 mg/kg/injection, schedule: Q01DX009 (ip), vehicle: saline with Tween-80
[7] = dose: 100.0 mg/kg/injection, schedule: Q01DX009 (ip), vehicle: saline with Tween-80
[8] = dose: 6.25 mg/kg/injection, schedule: Q01DX005 (ip), vehicle: Klucel (hydroxypropylcellulose) (HPC)
[9] = dose: 100.0 mg/kg/injection, schedule: Q01DX005 (ip), vehicle: Klucel (hydroxypropylcellulose) (HPC)
[10] = dose: 60.0 mg/kg/injection, schedule: Q01DX005 (ip), vehicle: saline with Tween-80
[11] = dose: 120.0 mg/kg/injection, schedule: Q01DX005 (ip), vehicle: saline with Tween-80
[12] = dose: 50.0 mg/kg/injection, schedule: Q01DX009 (ip), vehicle: Klucel (hydroxypropylcellulose) (HPC)
[13] = dose: 100.0 mg/kg/injection, schedule: Q01DX009 (ip), vehicle: Klucel (hydroxypropylcellulose) (HPC)
[14] = dose: 200.0 mg/kg/injection, schedule: Q01DX009 (ip), vehicle: Klucel (hydroxypropylcellulose) (HPC)
[15] = dose: 50.0 mg/kg/injection, schedule: Q01DX005 (ip), vehicle: saline with Tween-80
[16] = dose: 100.0 mg/kg/injection, schedule: Q01DX005 (ip), vehicle: saline with Tween-80
[17] = dose: 200.0 mg/kg/injection, schedule: Q01DX005 (ip), vehicle: saline with Tween-80
[18] = dose: 240.0 mg/kg/injection, schedule: Q01DX005 (ip), vehicle: saline with Tween-80
[19] = dose: 200.0 mg/kg/injection, schedule: Q01DX009 (ip), vehicle: saline with Tween-80
[20] = dose: 100.0 mg/kg/injection, schedule: Q04DX003 (ip), vehicle: saline with Tween-80
[21] = dose: 200.0 mg/kg/injection, schedule: Q04DX003 (ip), vehicle: saline with Tween-80
[22] = dose: 400.0 mg/kg/injection, schedule: Q04DX003 (ip), vehicle: saline with Tween-80

Measured: T/C

O=C(CNC(=O)C(CSCc1ccccc1)NC(=O)OCc1ccccc1)NCC(=O)OCc1ccccc1 (stereo not drawn) (Cbz-[ξC](Bn)-Gly-Gly-OBn)
inactive: [1] 102 % of control | [2] 95 % of control | [3] 102 % of control

Cc1c(-c2ccccc2)ccnc1/C=N/NC(=S)NCCc1ccccn1
inactive: dose: 6.25 mg/kg/injection, schedule: Q01DX009 (ip), vehicle: saline with Tween-80 113 % of control | [4] 107 % of control and 111 % of control | [5] 115 % of control and 117 % of control | [6] 120 % of control and 122 % of control | [7] 86 % of control

CCN(CC)C(=S)n1c(=S)nc(N(CC)CC)sc1=S
inactive: [8] 109 % of control | [1] 98 % of control | [2] 108 % of control

COc1cc([N+](=O)[O-])c(OC)cc1C(C)=O
inactive: [3] 96 % of control | [9] 93 % of control | dose: 200.0 mg/kg/injection, schedule: Q01DX005 (ip), vehicle: Klucel (hydroxypropylcellulose) (HPC) 100 % of control

N#C[S][Hg][c]1ccccc1
inactive: [10] 106 % of control | [11] 98 % of control

CN(CCc1ccccn1)c1ccc2c(c1)Cc1ccccc1-2
inactive: [3] 98 % of control | [9] 93 % of control

CC1(/C=C/c2ccccc2)NC(=O)NC1=O (centres undefined)
inactive: [12] 88 % of control | [13] 98 % of control | [14] 104 % of control

CC(C)=NNC1=NC(CC(C)C)P(=O)(NCCCCNP2(=O)SC(NN=C(C)C)=NC2CC(C)C)S1 (centres undefined)
inactive: [15] 103 % of control | [16] 103 % of control | [17] 101 % of control

O=C1CCC(N2C(=O)C3CCCCC3C2=O)C(=O)O1 (centres undefined)
inactive: [12] 94 % of control | [13] 108 % of control | [14] 99 % of control

COC(=O)/N=c1\cc(N2CC=CCC2)nc(N)n1O
inactive: [10] 94 % of control | [11] 94 % of control | [18] 91 % of control

CCCCCCC(=O)/C=C/c1ccc(OC)cc1OC
inactive: [6] 94 % of control | [7] 91 % of control | [19] 91 % of control

CCCCCC(C)COS(=O)(=O)c1ccc([N+](C)(C)C)cc1 (centres undefined)
inactive: [4] 102 % of control | [5] 103 % of control | [6] 105 % of control

NC(Cc1ccc(O)cc1)C(=O)OC1CCCCC1 (centres undefined)
inactive: dose: 25.0 mg/kg/injection, schedule: Q04DX003 (ip), vehicle: saline with Tween-80 107 % of control | dose: 50.0 mg/kg/injection, schedule: Q04DX003 (ip), vehicle: saline with Tween-80 110 % of control | [20] 100 % of control | [21] 96 % of control | [22] 95 % of control

CC(=O)CC(=O)c1ccccc1.CC(=O)CC(=O)c1ccccc1.[Ni]
inactive: dose: 3.0 mg/kg/injection, schedule: Q01DX009 (ip), vehicle: saline with Tween-80 106 % of control | dose: 6.0 mg/kg/injection, schedule: Q01DX009 (ip), vehicle: saline with Tween-80 98 % of control | dose: 12.0 mg/kg/injection, schedule: Q01DX009 (ip), vehicle: saline with Tween-80 99 % of control | [4] 91 % of control | dose: 24.0 mg/kg/injection, schedule: Q01DX009 (ip), vehicle: saline with Tween-80 99 % of control

NC(CO)C(=O)NC1(C(=O)O)CCCC1 (centres undefined) (H-[ξS]-[Ac5c]-OH)
inactive: [20] 95 % of control | [21] 100 % of control | [22] 120 % of control

CN(C)CCO[Si](C)(c1ccccc1)c1ccc(F)cc1 (centres undefined)
inactive: [4] 100 % of control | [5] 101 % of control | [6] 98 % of control and 101 % of control | [7] 99 % of control | [19] 114 % of control

[CH3][Ga]([CH3])[n]1cccn1
inactive: dose: 3.12 mg/kg/injection, schedule: Q01DX005 (ip), vehicle: Klucel (hydroxypropylcellulose) (HPC) 100 % of control | [8] 111 % of control

CN(CC#N)Cc1ccccc1
inactive: dose: 7.5 mg/kg/injection, schedule: Q01DX005 (ip), vehicle: saline with Tween-80 95 % of control | dose: 15.0 mg/kg/injection, schedule: Q01DX005 (ip), vehicle: saline with Tween-80 96 % of control | dose: 30.0 mg/kg/injection, schedule: Q01DX005 (ip), vehicle: saline with Tween-80 97 % of control | [10] 103 % of control

CCCCCCCCCCN(CCCCCCCCCC)C(C)C(=O)c1ccc2cc(Br)c3ccccc3c2c1 (centres undefined)
inactive: [15] 99 % of control | [16] 89 % of control | [17] 104 % of control

Cn1c(=O)c2[nH]c(C(C)(C)O)nc2n(C)c1=O
inactive: [10] 101 % of control | [11] 104 % of control | [18] 101 % of control

CC1CCN(C)CC1
inactive: dose: 25.0 mg/kg/injection, schedule: Q01DX005 (ip), vehicle: saline 104 % of control | dose: 50.0 mg/kg/injection, schedule: Q01DX005 (ip), vehicle: saline 97 % of control | dose: 100.0 mg/kg/injection, schedule: Q01DX005 (ip), vehicle: saline 105 % of control

C=C1CC[C@H]2C(C)=CC[C@@H]3[C@H](OC(=O)[C@H]3CN3CCN(c4ccc(C)c([N+](=O)[O-])c4)CC3)[C@@H]12
inactive: dose: 100.0 mg/kg/injection, schedule: Q04DX002 (ip), vehicle: saline 97 % of control | dose: 200.0 mg/kg/injection, schedule: Q04DX002 (ip), vehicle: saline 99 % of control | dose: 400.0 mg/kg/injection, schedule: Q04DX002 (ip), vehicle: saline 96 % of control

CC(=O)Cc1ccc(C)cc1
inactive: [20] 104 % of control | [21] 104 % of control | [22] 104 % of control

CNC(=S)NNc1nc(N(C)C)nc(N(C)C)n1
inactive: dose: 100.0 mg/kg/injection, schedule: Q04DX002 (ip), vehicle: saline with Tween-80 98 % of control | dose: 200.0 mg/kg/injection, schedule: Q04DX002 (ip), vehicle: saline with Tween-80 92 % of control | dose: 400.0 mg/kg/injection, schedule: Q04DX002 (ip), vehicle: saline with Tween-80 93 % of control

C=C1C(=O)OC2C1CC(O)/C(C)=C\CCC1(C)OC21 (centres undefined)
inactive: dose: 50.0 mg/kg/injection, schedule: Q01DX009 (ip), vehicle: distilled water + Tween-80 + alcohol 117 % of control | dose: 70.0 mg/kg/injection, schedule: Q01DX009 (ip), vehicle: distilled water + Tween-80 + alcohol 117 % of control | dose: 70.0 mg/kg/injection, schedule: Q01DX009 (ip), vehicle: water 122 % of control | dose: 90.0 mg/kg/injection, schedule: Q01DX009 (ip), vehicle: distilled water + Tween-80 + alcohol 104 % of control

CCCCCCC(/C=C/c1ccc(Cl)c(Cl)c1)=N\Nc1ccc(Cl)cc1Cl
inactive: [4] 94 % of control | [5] 94 % of control | [7] 88 % of control | [19] 87 % of control

O=C1C(c2ccc3ccccc3n2)=C(O)c2ccccc21
inactive: dose: 15.0 mg/kg/injection, schedule: Q01DX005 (ip), vehicle: Klucel (hydroxypropylcellulose) (HPC) 101 % of control | dose: 30.0 mg/kg/injection, schedule: Q01DX005 (ip), vehicle: Klucel (hydroxypropylcellulose) (HPC) 96 % of control | dose: 60.0 mg/kg/injection, schedule: Q01DX005 (ip), vehicle: Klucel (hydroxypropylcellulose) (HPC) 101 % of control and 88 % of control
